Results as given in US20060240032A1, “Immunomodulating compositions and methods for use in the treatment of human autoimmune diseases” (priority 2005, published 2006).
Read-outs that look alike come from different tables or passages of the source. No end group written: not given here.

Tests used:
EAE in Lewis rats = EAE in Lewis rats injected with gpMBP in CFA, treatment with saline solution of octamer or monomer; type: in vivo; conditions: 4 and 8 days after gpMBP-CFA
Text: Experimental autoimmune encephalomyelitis (EAE) in the rat is an acute paralytic disease from which most animals spontaneously recover. The disease can be induced in susceptible inbred Lewis and DA rats with myelin basic protein (MBP), or encephalitogenic MBP peptides administered in complete Freund's adjuvant (CFA). The disease can be adoptively transferred to syngeneic recipients with primed T cells that have been reactivated in vitro with antigen. Studies of EAE in susceptible rats have provided many important insights into the interactions of T cells and accessory cells that culminate in the induction of the autoimmune response.
The influence of a saline solution of the 72-85gpMBP octamer on the course of EAE in Lewis rats previously injected with gpMBP emulsified in CFA was investigated. We injected 10 or 50 micrograms of the 72-85 gpMBP octamer into Lewis rats 4 and 8 days after they had been injected with gpMBP-CFA. […] Rats that received an equivalent amount of the 72-85 amino acid gpMBP peptide monomer at day 4 and day 8 developed clinical signs of disease.

EAE in SJL mice = EAE in SJL mice immunized with PLP(139-151) in CFA (139CFA), treatment after immunization before disease; type: in vivo; conditions: for development of clinical signs of EAE: intraperitoneal or subcutaneous, days 2, 7 and 10 after 139CFA
Text: For all of these studies, MAP octamers of the 139-151aa peptide of proteolipid protein (PLP) were used and prepared by solid phase peptide synthesis as described above in the Materials and Methods. Each PLP(139-151) MAP octamer is comprised of eight polypeptide chains of the 139-151 aa of PLP each covalently linked to a central core as shown in FIG. 1. The general structure of the MAP (FIG. 1) is therefore dissimilar to the linear array typical of the peptide multimers used by others in the prior art (Falk, Rotzschke et al. 2000; Falk, Rotzschke et al. 2000; Stienekemeier, Falk et al. 2001). MAPs are also referred to as dendrimers to emphasize the branched nature of their structure (Bracci, Falciani et al. 2003). Initial studies with the 139-151 PLP MAP octamers (139MAP) used SJL mice that were first immunized with the encephalitogenic 139-151 PLP peptide in CFA (139CFA) and subsequently injected with saline solutions of 139MAP. […] For this initial study, mice were treated by intraperitoneal or subcutaneous injection with 139MAP on days 2, 7 and 10 following 139CFA injection.

[1] = test system: adoptively transferred EAE in SJL mice; experiment: EAE induced by adoptive transfer of PLP(139-151) specific T-cell lines into naive SJL mice; type: in vivo; conditions: for additional (relapsing) episodes of EAE: adoptive transfer recipients, treatment initiated after clinical signs of EAE
Text: The T-cell lines employed for these studies were derived from SJL mice previously immunized with 139CFA. The T-cell lines are used for adoptive transfer studies following the third round of antigen-stimulation in vitro. The source of antigen presenting cells is irradiated syngeneic thymus cells. This is a procedure that is routinely used by other investigators and is known by those of skill in the art (Bourdette, Vandenbark et al. 1989).
We treated some of the cell recipients with 50 micrograms 139MAP on three consecutive days with treatment initiated after the development of clinical signs of EAE. […] This is very clear in vivo data showing the 139MAP-associated inhibition of rEAE in the SJL mouse model. The 139MAP reagent inhibits the progression of clinically apparent disease as well as the onset and the continued development of EAE in both the actively-induced as well as the adoptively-transferred forms of EAE.

diabetes in NOD mice = conditions: cited from earlier work
[2] = test system: PLP(178-191) induced rEAE in SJL mice; experiment: EAE in SJL mice immunized with PLP(178-191) in CFA (antigen specificity); type: in vivo; conditions: for disease development: SJL mice immunized with PLP(178-191) in CFA, treated days 2, 7 and 10 (FIG. 5)
Text: The relapsing disease that develops in SJL mice is thought to occur due to the immune response that develops against additional encephalitogenic determinants found in PLP and MBP (Cross, Tuohy et al. 1993). […] Immunization of SJL mice with the PLP(178-191) peptide in CFA caused the development of clinically apparent disease 12-14 days following immunization. […] FIG. 6 represents a second experiment (4 animals per group) in which mice treated with 139MAP after they developed initial signs of EAE due to immunization with the PLP(178-191) peptide.

[3] = test system: PLP(139-151) peptide specific T-cell lines; experiment: Proliferation of encephalitogenic T-cell line in response to antigen in vitro; type: cell-based; conditions: T-cell line from 139CFA-immunized SJL mice
[4] = test system: antigen specific lymphocytes; experiment: Additional studies on lymphoid traffic after 139MAP treatment; type: in vivo
[5] = test system: relapsing EAE (rEAE) in SJL mice; conditions: for relapses (rEAE): 100 microgram doses on two consecutive days after clinical disease evident
Experimental: Animals are graded as grade 1 when the first sign of disease is evident which is a flaccid tail.
The 139MAP-treated animals were given 100 microgram doses of 139MAP on two consecutive days. […] All reagents were administered on two consecutive days after clinical disease was evident.

Substance: 72-85 amino acid gpMBP peptide monomer: monomer of the 72-85 amino acid peptide of guinea pig myelin basic protein (LPQKSQRSQDENPV; UniProt P25188 72-85, looked up, fragment) [reference compound]
- clinical signs of EAE (EAE in Lewis rats; 10 micrograms): No diminution of the signs of clinical disease
- clinical signs of EAE (EAE in Lewis rats; 50 micrograms): modest diminution of the clinical signs of EAE

Substance: 72-85 gpMBP octamer: chemically synthesized octamers of the 72-85 amino acid peptide of guinea pig myelin basic protein (SEQ ID NO:7) (LPQKSQRSQDENPV; also: octamer on lysine-branched core)
- clinical signs of EAE (EAE in Lewis rats; 10 micrograms): developed less severe disease compared to the control group
- clinical signs of EAE (EAE in Lewis rats; 50 micrograms): did not develop any signs of clinical disease
- development of EAE disease (EAE in SJL mice; SJL mice immunized with 139CFA, control octamer, dose not stated (FIG. 3)): had no effect of the development of EAE disease
- additional (relapsing) episodes of EAE [1]: developed a relapsing episode of clinically severe EAE

Substance: B(9-23): peptide of residues 9-23 of the insulin B chain (SEQ ID NO:2) (SHLVEALYLVCGERG)
- anaphylaxis (diabetes in NOD mice; peptide therapy): development of anaphylaxis
- onset and incidence of diabetes (diabetes in NOD mice; subcutaneous or intranasal administration): marked delay in the onset and a decrease in the incidence of diabetes

Substance: 139MAP: chemically synthesized octamer of PLP 139-151 peptide (HSLGKWLGHPDKF, SEQ ID NO:8), each linked through KKKKKGG spacer to a lysine-branched core (also: octamer, each linked via KKKKKGG spacer to lysine-branched core (MAP))
- development of clinical signs of EAE (EAE in SJL mice; SJL mice, 20 micrograms): Virtually all signs of disease were prevented
- development of clinical signs of EAE (EAE in SJL mice; SJL mice, 100 micrograms): Virtually all signs of disease were prevented
- diminution of EAE (EAE in SJL mice; SJL mice, three injections of 5 micrograms after 139CFA (FIG. 3)): considerable diminution of EAE
- disease development [2]: no significant inhibition of disease development
- disease development ([2]; listed as MAP139 octamer): does not inhibit the development of PLP(178-191) induced rEAE
- development of relapses ([2]; SJL mice immunized with PLP(178-191), treated after initial signs of EAE): inhibits the development of relapses
- continued development of the first episode of disease ([1]; 50 micrograms on three consecutive days, initiated after clinical signs of EAE): inhibited the continued development of the first episode of disease
- development of adoptively transferred EAE and subsequent relapses ([1]; administered prior to onset of disease or at first indication of disease (tail flaccidity), data not shown): completely inhibited
- additional (relapsing) episodes of EAE [1]: no or very modest signs of additional episodes of EAE
- additional (relapsing) episodes of EAE ([1]; listed as MAP139 octamer): inhibits the development of rEAE
- T-cell line proliferation in response to antigen [3]: proliferated in response
- lymphoid traffic to the autoimmune target organ [4]: alters lymphoid traffic to the autoimmune target organ
- relapses (rEAE) [5]: inhibited the relapse component of this disease
- subsequent course of disease ([5]; 100 microgram doses on two consecutive days after clinical disease evident (grades 1-3)): profound and immediate influence on the subsequent course of disease
- relapses (rEAE) ([5]; listed as MAP139 octamer): effectively inhibits rEAE
